What was measured:
[1] = system: Negative control (RNA, single strand) UUACCCUUACCCUUACCCUUACCCUUA; experiment: ThT fluorescence light-up; conditions: pH 7.4, 34 °C, 5 µM RNA, 5 µM ThT highest tested
[2] = system: miniTERRA (RNA, G4) UUAGGGUUAGGGUUAGGGUUAGGGUUA; experiment: ThT fluorescence light-up; conditions: pH 7.4, 34 °C, 5 µM RNA, 5 µM ThT
[3] = system: miniTERRA (RNA, G4) UUAGGGUUAGGGUUAGGGUUAGGGUUA; experiment: fluorescent indicator displacement (ThT); conditions: pH 7.4, 34 °C, 5 µM RNA, 5 µM ThT displaced

binding ([1]; K+ (100 mM phosphate))	binding ([1]; Na+ (100 mM phosphate))	binding ([2]; K+ (100 mM phosphate))	binding ([2]; Na+ (100 mM phosphate))	IC50 ([3]; K+ (100 mM phosphate))	IC50 ([3]; Na+ (100 mM phosphate))	SMILES
no	no	yes	yes			Cc1ccc2c(c1)sc(-c1ccc(N(C)C)cc1)[n+]2C
				17.23 ± 0.28 µM	19.29 ± 0.25 µM	NCCOc1cc(C(=O)Nc2cc(OCCN)c3ccccc3n2)nc(C(=O)Nc2cc(OCCN)c3ccccc3n2)c1
